According to patent US4288439A, “Anti-ulcer treatment method” (priority 1978, dated 1981):

Legend:
[1] = stress-induced erosion test (Senay & Levine), anti-ulcer activity; format: in vivo; settings: Dose 100 mg/kg
Protocol: (§1) Anti-ulcer activity was determined by the stress-induced erosion test of Senay & Levine, Proc. Soc. Exp. Biol. Med., 124, 1221-3(1967) and anti-secretory activity by the test of H. Shay, D. Sun and H. Greenstein, Gastroenterology, 1954, 26,903-13 as exemplified by Beattie et al in J. Med Chem, 20,714 (1977).

[2] = anti-secretory activity test (Shay et al); format: in vivo
Protocol: as §1

Row | SMILES | Stress Induced erosion (Senay & Levine) % inhibition [1] [%] | Anti-Secretory (Shay et al) % change in volt ([2]; Dose 10 mg/kg) [%] | Anti-Secretory (Shay et al) % change in volt ([2]; Dose 30 mg/kg) [%]
1 | C[n+]1ccccc1SCSc1cccc[n+]1C [Example 1, Methylene bis((1-methylpyridinium-2-yl)-thio) diiodide] | 71 | -32 | -62
2 | C[n+]1ccccc1SCCSc1cccc[n+]1C [Example 2, 1,2-Di-((1-methylpyridinium-2-yl)thio)ethane dibromide] | 67 | – | -48
